Measurements published in patent US5210089A, “D-rhamnono-1,5-lactone” (Monsanto Company, priority 1992, dated 1993).

Assays:
cytosolic β-glucosidase = target: T1, cytosolic β-glucosidase (Homo sapiens, UniProt Q9H227); test: Human liver glycosidase assay, cytosolic β-glucosidase; format: biochemical; conditions: for inhibition at 1000 µM: 1 mM compound; for IC50: read-out: I50, cytosolic β-glucosidase
T1 construct: human liver extracts; from tissue; host or cells: human liver extracts
T1 sequence (Q9H227 1-469): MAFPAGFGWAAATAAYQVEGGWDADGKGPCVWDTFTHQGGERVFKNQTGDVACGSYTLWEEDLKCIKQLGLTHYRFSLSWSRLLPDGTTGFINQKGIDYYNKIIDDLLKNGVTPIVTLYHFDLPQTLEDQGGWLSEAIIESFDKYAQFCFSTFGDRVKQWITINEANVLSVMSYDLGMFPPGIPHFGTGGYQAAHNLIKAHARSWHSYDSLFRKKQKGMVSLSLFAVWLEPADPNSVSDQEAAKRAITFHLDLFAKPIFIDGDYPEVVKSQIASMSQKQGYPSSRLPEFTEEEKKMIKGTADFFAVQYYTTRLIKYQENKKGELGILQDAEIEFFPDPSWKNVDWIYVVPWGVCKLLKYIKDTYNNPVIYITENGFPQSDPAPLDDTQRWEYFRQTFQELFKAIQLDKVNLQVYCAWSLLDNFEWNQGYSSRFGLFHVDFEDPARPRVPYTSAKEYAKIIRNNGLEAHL
Description: Melting points were recorded on a Kofler hot block. Proton nuclear magnetic resonance (δH) spectra were recorded on Varian Gemini 200 (at 200 MHz), Bruker WH 300 (300 MHz), or Bruker AM 500 (500 MHz) spectrometers. Carbon nuclear magnetic resonance (δC) spectra were recorded on a Varian Gemini 200 (50 MHz) or a Bruker 250 (62.9 MHz) spectrometer. Multiplicities were assigned using DEPT sequence on the Gemini and by off resonance decoupling on the Bruker. Spectra run in D2 O were referenced to methanol as an internal standard. All chemical shifts are quoted on the δ-scale. Infrared spectra were recorded on a Perkin-Elmer 297, or on a Perkin-Elmer 781 spectrophotometer. Mass spectra were recorded on VG Micromass 30F, ZAB lF, Masslab 20-250 or Trio-1 GCMS (DB-5 column) spectrometers using desorption chemical ionization (NH3 DCI), electron impact (EI), chemical ionization (NH3 CI) and fast atom bombardment (FAB) techniques, as stated. […] Concentrations were given in g/100 ml. Hydrogenations were run under an atmosphere of hydrogen gas maintained by inflated balloon. Microanalyses were performed by the microanalysis service of the DysonPerrins laboratory, Oxford UK. Thin layer chromatography (t.l.c.) was carried out on aluminum sheets coated with 60F254 silica. Plates were developed using either 5% v/v concentrated sulphuric acid in methanol, 0.2% w/v cerium (IV) sulphate and 5% ammonium molybdate in 2M sulphuric acid and 0.5% ninhydrin in methanol. Flash chromatography was carried out using Sorbsil C60 40/60 silica. Ion-exchange chromatography was performed using Dowex 50W-X8 (H) and Sigma CG 400 (Cl) resins. The resins were washed with 2M hydrochloric acid and 2M sodium hydroxide solution, respectively, and subsequently with distilled water, prior to use. Solvents and commercially available reagents were dried and purified before use according to standard procedures; dichloromethane was refluxed over and distilled from calcium hydride, N,N-dimethylformamide was distilled under reduced pressure from calcium hydride, methanol was distilled from magnesium methoxide, pyridine was distilled from, and stored over, potassium hydroxide and tetrahydrofuran was distilled from a purple solution of sodium benzophenone ketyl immediately before use. Hexane was distilled at 68° C. before use to remove involatile fractions. 2,3-O-Isopropylidene-L-gulono-1,4-lactone (9) [H. Ogura et al., J. Oro. Chem. 37, 72 (1972); G. W. J. Fleet Tetrahedron 45, 319 (1989)]and 2,3-O-isopropylidene-D-gulono-1,4-lactone (15) [L. M. Lerner et al., J. Org. […]
The enzymes included human liver glycosidases and naringinase. The latter enzyme is a readily available endo-L-rhamnosidase described by Romero et al., Anal. Biochem. 149, 566 (1985).

Lysosomal α-mannosidase = target: T2, Lysosomal α-mannosidase (Homo sapiens, UniProt O00754); conditions: literature; cited from earlier work
T2 sequence (O00754 50-1011): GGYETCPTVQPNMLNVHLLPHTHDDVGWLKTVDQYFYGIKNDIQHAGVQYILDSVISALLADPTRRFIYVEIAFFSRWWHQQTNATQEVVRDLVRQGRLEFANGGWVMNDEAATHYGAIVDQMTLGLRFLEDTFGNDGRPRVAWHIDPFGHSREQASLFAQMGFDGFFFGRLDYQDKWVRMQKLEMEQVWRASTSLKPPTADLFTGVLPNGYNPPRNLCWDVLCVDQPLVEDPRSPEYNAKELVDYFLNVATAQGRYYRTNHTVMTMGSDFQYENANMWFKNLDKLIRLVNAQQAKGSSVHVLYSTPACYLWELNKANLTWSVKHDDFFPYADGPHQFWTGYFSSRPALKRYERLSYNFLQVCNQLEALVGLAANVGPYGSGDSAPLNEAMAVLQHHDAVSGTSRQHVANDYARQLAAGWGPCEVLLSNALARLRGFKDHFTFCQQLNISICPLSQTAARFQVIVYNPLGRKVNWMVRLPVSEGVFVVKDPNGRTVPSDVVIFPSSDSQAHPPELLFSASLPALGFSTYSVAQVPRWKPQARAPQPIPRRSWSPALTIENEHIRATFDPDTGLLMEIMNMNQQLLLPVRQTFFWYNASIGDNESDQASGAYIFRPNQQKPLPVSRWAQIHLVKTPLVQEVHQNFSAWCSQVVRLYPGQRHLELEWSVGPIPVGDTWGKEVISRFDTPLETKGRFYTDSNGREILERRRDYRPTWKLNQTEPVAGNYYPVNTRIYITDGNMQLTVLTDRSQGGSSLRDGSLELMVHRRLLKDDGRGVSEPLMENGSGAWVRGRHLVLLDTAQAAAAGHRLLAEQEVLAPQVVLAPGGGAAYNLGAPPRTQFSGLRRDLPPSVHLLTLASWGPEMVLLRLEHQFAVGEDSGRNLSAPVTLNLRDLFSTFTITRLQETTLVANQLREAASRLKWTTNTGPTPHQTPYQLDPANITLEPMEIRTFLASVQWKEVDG

apricot β-glucosidase = conditions: literature; cited from earlier work
[1] = tested on: rat epidodymal α-mannosidases; conditions: literature; cited from earlier work

SMILES	inhibition at 1000 µM (cytosolic β-glucosidase) [%]	IC50 (cytosolic β-glucosidase) [µM]	Inhibition of human lysosomal α-mannosidase (in words) (Lysosomal α-mannosidase)	Inhibition of apricot β-glucosidase (in words) (apricot β-glucosidase)	Inhibition of rat epididymal α-mannosidase (in words) [1]
C[C@H]1NC(=O)[C@@H](O)[C@@H](O)[C@@H]1O [D-Rhamno-1,5-lactam (6), 6-Deoxy-D-mannono-δ-lactam]	67	700			
O=C1N[C@H](CO)[C@@H](O)[C@H](O)[C@@H]1O [Mannono-1,5-lactam (2), D-mannonolactam]	98	50	powerful inhibitor	powerful inhibitor	powerful inhibitor
